Experimental data reported in ChEMBL document CHEMBL3217572, “Preparation and evaluation of BBB-permeable trehalose derivatives as potential therapeutic agents for Huntington's disease” (Medchemcomm, 2013).
Calls of active or inactive are those of the source. No cut-off for these calls is given here.

Key:
Mus musculus [1] = assay: Toxicity in C57BL/6 mouse at 90.9 mg/kg, ip; assay type: organism-based; parameters: dose 90.9 mg/kg, route intraperitoneal; conditions: in vivo
HeLa [2] = assay: Cellular uptake in human HeLa cells at 5 to 10 uM after 10 mins by FACS analysis; assay type: ADME, cell-based
Spleen = assay: Biodistribution in C57BL/6 mouse spleen at 454 mg/kg, po after 24 hrs by fluorescence microscopic analysis; assay type: ADME, organism-based; parameters: dose 454 mg/kg, route oral; conditions: in vivo
Kidney = assay: Biodistribution in C57BL/6 mouse kidney at 90.9 mg/kg, ip after 60 mins by fluorescence microscopic analysis; assay type: ADME, organism-based; parameters: dose 90.9 mg/kg, route intraperitoneal; conditions: in vivo, 1 h
[3] = Cellular uptake in cytoplasm of human HeLa cells at 1 uM up to 1 hr by confocal microscopic analysis; assay type: ADME, cell-based
Brain [4] = assay: Biodistribution in C57BL/6 mouse brain at 454 mg/kg, po after 24 hrs by fluorescence microscopic analysis; assay type: ADME, organism-based; parameters: dose 454 mg/kg, route oral; conditions: in vivo
Mus musculus [5] = assay: Toxicity in C57BL/6 mouse at 454 mg/kg, po; assay type: organism-based; parameters: dose 454 mg/kg, route oral; conditions: in vivo
[6] = Cellular uptake in cytoplasm of human HeLa cells at 10 uM after 10 mins by confocal microscopic analysis in presence mitotracker; assay type: ADME, cell-based
[7] = Cellular uptake in nucleus of human HeLa cells at 1 uM up to 1 hr by confocal microscopic analysis; assay type: ADME, cell-based
[8] = Solubility in water; assay type: physicochemical; conditions: buffer
Brain [9] = assay: Biodistribution in C57BL/6 mouse brain at 90.9 mg/kg, ip after 60 mins by fluorescence microscopic analysis; assay type: ADME, organism-based; parameters: dose 90.9 mg/kg, route intraperitoneal; conditions: in vivo, 1 h
[10] = biological target: Huntingtin (Homo sapiens) (UniProt P42858); assay: Inhibition of N-terminal Htt-exon1-Q103 (unknown origin) transfected in HEK293A cells at 50 uM by Western blotting analysis; assay type: cell-based; conditions: HEK293-A
[11] = biological target: Huntingtin (Homo sapiens) (UniProt P42858); assay: Inhibition of N-terminal Htt-exon1-Q103 (unknown origin) transfected in mouse Neuro2a cells assessed as decrease in soluble and insoluble aggregate formation by Western blotting analysis; assay type: cell-based
Mus musculus [12] = assay: Neuroprotective activity in R6/2 transgenic mouse assessed as reduction of foot-clasping posture at 0.4%, po measured on week 8; assay type: functional, organism-based
Mus musculus [13] = assay: Neuroprotective activity in R6/2 transgenic mouse assessed as increased locomotory activity at 0.4%, po measured for 20 mins; assay type: functional, organism-based
[14] = biological target: Huntingtin (Homo sapiens) (UniProt P42858); assay: Inhibition of N-terminal GFP-tagged Htt-exon1-Q25 (unknown origin) transfected in HEK293A cells assessed as reduction of Htt-Q103 aggregate formation at 50 uM after 3 days by fluorescence microscopic analysis; assay type: cell-based; conditions: HEK293-A
Mus musculus [15] = assay: Toxicity in R6/2 transgenic mouse assessed as increase in body weight at 0.4%, po measured up to 9 weeks; assay type: organism-based; conditions: in vivo, 1512 h
Mus musculus [16] = assay: Inhibition of mutated aggregate formation in brain homogenate of R6/2 transgenic mouse at 0.4%, po by Hoechst staining-based by immunohistochemistry; assay type: functional, organism-based
RAW264.7 = assay: Cytotoxicity against mouse RAW264.7 cells by MTT assay; assay type: cell-based
Mus musculus [17] = assay: Inhibition of mutated huntingtin aggregate formation in brain homogenate of R6/2 transgenic mouse at 0.4%, po by Western blotting analysis; assay type: functional, organism-based
[18] = biological target: Huntingtin (Homo sapiens) (UniProt P42858); assay: Inhibition of N-terminal GFP-tagged Htt-exon1-Q103 (unknown origin) transfected in Neuro2a cells assessed as reduction of Htt-Q103 aggregate formation at 100 uM by fluorescence microscopic analysis; assay type: cell-based
Mus musculus [19] = assay: Toxicity in R6/2 transgenic mouse assessed as body weight loss at 0.4%, po measured on week 12; assay type: organism-based; conditions: in vivo
Mus musculus [20] = assay: Neuroprotective activity in wild type mouse assessed as behavioral pattern at 0.4%, po; assay type: ADME, organism-based; conditions: in vivo
[21] = biological target: Huntingtin (Homo sapiens) (UniProt P42858); assay: Inhibition of N-terminal GFP-tagged Htt-exon1-Q103 (unknown origin) transfected in HEK293A cells assessed as reduction of Htt-Q103 aggregate formation at 50 uM after 3 days by fluorescence microscopic analysis; assay type: cell-based; conditions: HEK293-A
[22] = Cytotoxicity against african green monkey COS7 cells by MTT assay; assay type: cell-based; conditions: Chlorocebus aethiops, COS-7
Mus musculus [23] = assay: Neuroprotective activity in R6/2 transgenic mouse assessed as increase in mean survival time at 0.4%, po (reference value: 93 days); assay type: functional
Mus musculus [24] = assay: Inhibition of mutated huntingtin aggregate formation in liver homogenate of R6/2 transgenic mouse at 0.4%, po after 4 to 8 weeks by Western blotting analysis; assay type: functional, organism-based
HeLa [25] = assay: Cytotoxicity against human HeLa cells by MTT assay; assay type: cell-based
Mus musculus [26] = assay: Neuroprotective activity in R6/2 transgenic mouse assessed as improved motor coordination and balance at 0.4%, po measured up to 8 weeks by rotarod test; assay type: functional, organism-based
[27] = biological target: Huntingtin (Homo sapiens) (UniProt P42858); assay: Inhibition of N-terminal GFP-tagged Htt-exon1-Q103 (unknown origin) transfected in HEK293A cells assessed as reduction of Htt-Q103 aggregate formation by filter trap assay; assay type: cell-based; conditions: HEK293-A
Mus musculus [28] = assay: Toxicity in R6/2 transgenic mouse assessed as body weight loss at 1%, po measured on week 12; assay type: organism-based; conditions: in vivo
Mus musculus [29] = assay: Inhibition of mutated aggregate formation in brain homogenate of R6/2 transgenic mouse at 1%, po by Hoechst staining-based by immunohistochemistry; assay type: functional, organism-based
[30] = biological target: Huntingtin (Homo sapiens) (UniProt P42858); assay: Inhibition of N-terminal GFP-tagged Htt-exon1-Q103 (unknown origin) transfected in HEK293A cells assessed as reduction of Htt-Q103 aggregate formation at 200 uM by filter trap assay; assay type: cell-based; conditions: HEK293-A
Mus musculus [31] = assay: Inhibition of mutated huntingtin aggregate formation in liver homogenate of R6/2 transgenic mouse at 1%, po after 4 to 8 weeks by Western blotting analysis; assay type: functional, organism-based
Mus musculus [32] = assay: Neuroprotective activity in R6/2 transgenic mouse assessed as increased mean survival time at 1%, po (reference value: 93 days); assay type: functional

Huntingtin (Homo sapiens), sequence (P42858 whole entry): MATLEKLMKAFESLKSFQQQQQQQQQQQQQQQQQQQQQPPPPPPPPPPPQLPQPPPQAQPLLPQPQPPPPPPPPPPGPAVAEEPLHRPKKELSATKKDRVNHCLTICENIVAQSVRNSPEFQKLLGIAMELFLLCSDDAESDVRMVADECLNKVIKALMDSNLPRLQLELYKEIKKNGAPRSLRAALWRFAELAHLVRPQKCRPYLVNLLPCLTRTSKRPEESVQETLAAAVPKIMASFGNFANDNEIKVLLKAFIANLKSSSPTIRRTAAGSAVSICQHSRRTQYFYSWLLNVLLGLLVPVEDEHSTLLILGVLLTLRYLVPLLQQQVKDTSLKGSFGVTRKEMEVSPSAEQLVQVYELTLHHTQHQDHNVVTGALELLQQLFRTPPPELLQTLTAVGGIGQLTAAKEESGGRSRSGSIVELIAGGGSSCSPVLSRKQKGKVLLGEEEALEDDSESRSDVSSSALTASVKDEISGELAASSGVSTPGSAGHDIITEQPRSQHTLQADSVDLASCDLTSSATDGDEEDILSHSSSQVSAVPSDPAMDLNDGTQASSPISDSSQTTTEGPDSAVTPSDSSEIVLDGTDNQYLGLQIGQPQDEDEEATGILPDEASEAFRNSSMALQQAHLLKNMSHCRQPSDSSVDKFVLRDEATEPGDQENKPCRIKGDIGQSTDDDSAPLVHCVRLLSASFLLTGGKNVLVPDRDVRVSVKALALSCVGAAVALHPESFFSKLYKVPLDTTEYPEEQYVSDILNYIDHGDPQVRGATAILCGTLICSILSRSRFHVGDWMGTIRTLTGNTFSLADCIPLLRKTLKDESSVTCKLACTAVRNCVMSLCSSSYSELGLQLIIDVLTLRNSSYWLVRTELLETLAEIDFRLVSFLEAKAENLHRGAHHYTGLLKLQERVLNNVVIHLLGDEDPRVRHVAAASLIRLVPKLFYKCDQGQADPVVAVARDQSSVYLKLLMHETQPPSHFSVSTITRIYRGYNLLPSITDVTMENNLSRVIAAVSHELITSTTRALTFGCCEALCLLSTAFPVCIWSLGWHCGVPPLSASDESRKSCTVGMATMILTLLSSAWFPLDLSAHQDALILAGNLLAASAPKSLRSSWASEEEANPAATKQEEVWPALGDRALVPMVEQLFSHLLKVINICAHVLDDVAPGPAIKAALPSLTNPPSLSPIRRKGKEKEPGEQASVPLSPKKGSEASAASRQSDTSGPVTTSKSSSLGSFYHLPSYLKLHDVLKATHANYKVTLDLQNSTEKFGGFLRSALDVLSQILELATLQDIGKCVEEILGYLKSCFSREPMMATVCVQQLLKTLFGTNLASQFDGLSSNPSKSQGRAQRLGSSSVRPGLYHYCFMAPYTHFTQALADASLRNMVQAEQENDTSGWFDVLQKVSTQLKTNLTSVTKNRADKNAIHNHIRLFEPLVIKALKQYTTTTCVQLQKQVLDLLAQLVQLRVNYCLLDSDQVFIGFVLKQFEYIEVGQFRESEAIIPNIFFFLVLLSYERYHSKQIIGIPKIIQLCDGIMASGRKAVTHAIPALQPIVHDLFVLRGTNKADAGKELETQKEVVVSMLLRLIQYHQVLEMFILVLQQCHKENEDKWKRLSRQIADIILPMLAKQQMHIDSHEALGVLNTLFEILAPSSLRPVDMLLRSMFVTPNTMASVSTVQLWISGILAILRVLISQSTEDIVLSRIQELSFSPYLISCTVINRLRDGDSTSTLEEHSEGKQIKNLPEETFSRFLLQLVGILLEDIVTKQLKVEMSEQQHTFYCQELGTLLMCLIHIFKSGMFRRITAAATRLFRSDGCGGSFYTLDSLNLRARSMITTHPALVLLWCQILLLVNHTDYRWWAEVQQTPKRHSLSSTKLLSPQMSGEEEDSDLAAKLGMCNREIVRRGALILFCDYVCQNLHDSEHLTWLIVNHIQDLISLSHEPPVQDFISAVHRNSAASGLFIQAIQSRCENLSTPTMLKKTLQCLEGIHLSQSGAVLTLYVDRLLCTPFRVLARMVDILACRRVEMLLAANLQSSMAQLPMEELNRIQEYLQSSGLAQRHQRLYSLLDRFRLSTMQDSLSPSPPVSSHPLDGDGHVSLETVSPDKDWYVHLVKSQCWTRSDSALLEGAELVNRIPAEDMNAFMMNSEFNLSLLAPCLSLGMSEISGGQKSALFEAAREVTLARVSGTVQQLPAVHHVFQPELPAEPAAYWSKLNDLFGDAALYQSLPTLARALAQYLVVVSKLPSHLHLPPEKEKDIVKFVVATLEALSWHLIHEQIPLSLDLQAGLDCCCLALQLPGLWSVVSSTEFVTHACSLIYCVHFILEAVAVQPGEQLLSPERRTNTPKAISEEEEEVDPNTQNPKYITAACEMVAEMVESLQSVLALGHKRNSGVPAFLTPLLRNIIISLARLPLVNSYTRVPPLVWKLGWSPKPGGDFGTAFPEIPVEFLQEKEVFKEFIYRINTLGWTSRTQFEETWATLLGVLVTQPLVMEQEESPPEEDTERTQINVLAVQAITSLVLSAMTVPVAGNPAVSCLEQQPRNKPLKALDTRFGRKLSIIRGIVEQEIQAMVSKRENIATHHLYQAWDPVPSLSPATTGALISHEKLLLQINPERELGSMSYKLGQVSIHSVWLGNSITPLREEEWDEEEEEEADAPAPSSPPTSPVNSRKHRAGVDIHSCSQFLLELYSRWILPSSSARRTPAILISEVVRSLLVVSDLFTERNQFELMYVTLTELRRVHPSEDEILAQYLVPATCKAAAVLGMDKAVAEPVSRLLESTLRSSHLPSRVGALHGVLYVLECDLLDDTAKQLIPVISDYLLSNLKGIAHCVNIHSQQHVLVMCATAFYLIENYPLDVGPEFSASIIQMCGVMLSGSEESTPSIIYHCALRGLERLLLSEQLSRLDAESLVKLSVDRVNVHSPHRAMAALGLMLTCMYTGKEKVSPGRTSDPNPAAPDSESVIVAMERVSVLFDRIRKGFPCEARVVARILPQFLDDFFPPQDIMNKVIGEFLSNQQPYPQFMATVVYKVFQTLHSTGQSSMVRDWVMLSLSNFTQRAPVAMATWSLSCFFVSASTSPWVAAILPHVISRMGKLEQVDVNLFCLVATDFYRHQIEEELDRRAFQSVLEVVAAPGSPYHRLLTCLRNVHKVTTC

## Cl.N=C(N)NCCCCCC(=O)O[C@@H]1[C@@H](OC(=O)CCCCCNC(=N)N)[C@@H](O[C@H]2O[C@H](COC(=O)CCCCCNC(=S)Nc3ccc(-c4c5ccc(=O)cc-5oc5cc(O)ccc45)c(C(=O)O)c3)[C@@H](OC(=O)CCCCCNC(=N)N)[C@H](OC(=O)CCCCCNC(=N)N)[C@H]2OC(=O)CCCCCNC(=N)N)O[C@H](COC(=O)CCCCCNC(=S)Nc2ccc(-c3c4ccc(=O)cc-4oc4cc(O)ccc34)c(C(=O)O)c2)[C@H]1OC(=O)CCCCCNC(=N)N
Mus musculus [1]
  Activity: Non-toxic
HeLa [2]
  Drug uptake: Active
Spleen
  Drug uptake: Active
Kidney
  Drug uptake: Active
[3]
  Drug uptake: Active
Brain [4]
  Drug uptake: Active
Mus musculus [5]
  Activity: Non-toxic
[6]
  Drug uptake: Active
[7]
  Drug uptake: Active
[8]
  solubility: soluble
Brain [9]
  Drug uptake: Active

## Cl.N=C(N)NCCCCCC(=O)O[C@@H]1[C@@H](OC(=O)CCCCCNC(=N)N)[C@@H](O[C@H]2O[C@H](CO)[C@@H](OC(=O)CCCCCNC(=N)N)[C@H](OC(=O)CCCCCNC(=N)N)[C@H]2OC(=O)CCCCCNC(=N)N)O[C@H](CO)[C@H]1OC(=O)CCCCCNC(=N)N
[10]
  inhibition: Active
[11]
  inhibition: Dose-dependent effect
Mus musculus [12]
  Activity: Active
Mus musculus [13]
  Activity: Active
[14]
  inhibition: inactive
Mus musculus [15]
  Activity: Non-toxic
Mus musculus [16]
  inhibition: Active
RAW264.7
  IC50: > 100 µM
Mus musculus [17]
  inhibition: Active
[18]; TDE = time-dependent effect
  inhibition: tde
Mus musculus [19]
  Activity: 14%
Mus musculus [20]
  Activity: Non-toxic
[21]
  inhibition: Active
[8]
  solubility: soluble
[22]
  IC50: > 100 µM
Mus musculus [23]
  MSD: 98.5 days
Mus musculus [24]
  inhibition: Active
HeLa [25]
  IC50: > 100 µM
Mus musculus [26]
  Activity: Active
[27]
  inhibition: Dose-dependent effect

## OC[C@H]1O[C@H](O[C@H]2O[C@H](CO)[C@@H](O)[C@H](O)[C@H]2O)[C@H](O)[C@@H](O)[C@@H]1O [TREHALOSE]
Mus musculus [28]
  Activity: 25%
Mus musculus [29]
  inhibition: Active
[30]
  inhibition: inactive
Mus musculus [31]
  inhibition: Active
Mus musculus [32]
  MSD: 94.5 days
[18]
  inhibition: inactive
[21]
  inhibition: inactive

## Cl.N=C(N)NCCCCCC(=O)OC[C@H]1O[C@H](O[C@H]2O[C@H](COC(=O)CCCCCNC(=N)N)[C@@H](OC(=O)CCCCCNC(=N)N)[C@H](OC(=O)CCCCCNC(=N)N)[C@H]2OC(=O)CCCCCNC(=N)N)[C@H](OC(=O)CCCCCNC(=N)N)[C@@H](OC(=O)CCCCCNC(=N)N)[C@@H]1OC(=O)CCCCCNC(=N)N
[14]
  inhibition: inactive
RAW264.7
  IC50: < 100 µM
[21]
  inhibition: inactive
[8]
  solubility: soluble
[22]
  IC50: < 100 µM
HeLa [25]
  IC50: < 100 µM
